Source: publication PMC5218480 (PLoS ONE, 2017)

Test system: MV-4-11 cells
Test: Gene expression microarray analysis (Affymetrix PrimeView) and GSEA
Format: cell-based, human
Parameters: RFU PODN (11730768_x_at) / Fold change /veh PODN (11730768_x_at) / RFU LINC00158 (11744669_a_at) / Fold change /veh LINC00158 (11744669_a_at) / RFU DUSP10 (11751237_a_at) / Fold change /veh DUSP10 (11751237_a_at) / RFU ID3 (11757404_x_at) / Fold change /veh ID3 (11757404_x_at) / RFU PLEKHG5 (11737974_s_at) / Fold change /veh PLEKHG5 (11737974_s_at) / RFU LRRC4B (11730491_at) / Fold change /veh LRRC4B (11730491_at) / RFU GIMAP4 (11747438_a_at) / Fold change /veh GIMAP4 (11747438_a_at) / RFU KRT8 (11758183_x_at) / Fold change /veh KRT8 (11758183_x_at) / RFU CNN1 (11734310_a_at) / Fold change /veh CNN1 (11734310_a_at) / RFU VPS37D (11726825_at) / Fold change /veh VPS37D (11726825_at) / RFU C10orf10 (11716522_x_at) / Fold change /veh C10orf10 (11716522_x_at) / RFU KIR2DL2 /// KIR2DL4 /// KIR2DL5A /// KIR2DL5B /// KIR2DS1 /// KIR2DS2 /// KIR2DS3 /// KIR2DS4 /// KIR3DL3 /// KIR3DL3 /// KIR3DS1 (11738374_at) / Fold change /veh KIR2DL2 /// KIR2DL4 /// KIR2DL5A /// KIR2DL5B /// KIR2DS1 /// KIR2DS2 /// KIR2DS3 /// KIR2DS4 /// KIR3DL3 /// KIR3DL3 /// KIR3DS1 (11738374_at) / RFU C1QL1 (11718748_at) / Fold change /veh C1QL1 (11718748_at) / RFU TMPRSS4 (11747572_a_at) / Fold change /veh TMPRSS4 (11747572_a_at) / RFU HAMP (11756126_x_at) / Fold change /veh HAMP (11756126_x_at) / RFU RNFT2 (11725882_a_at) / Fold change /veh RNFT2 (11725882_a_at) / RFU NR4A2 (11747474_a_at) / Fold change /veh NR4A2 (11747474_a_at) / RFU ABCC12 (11746883_a_at) / Fold change /veh ABCC12 (11746883_a_at) / RFU TMEM136 (11760407_x_at) / Fold change /veh TMEM136 (11760407_x_at) / RFU CLDN22 /// WWC2 (11732394_at) / Fold change /veh CLDN22 /// WWC2 (11732394_at) / RFU HLA-DPB1 (11760878_x_at) / Fold change /veh HLA-DPB1 (11760878_x_at) / RFU SPINT1 (11716480_a_at) / Fold change /veh SPINT1 (11716480_a_at) / RFU GAP43 (11754022_s_at) / Fold change /veh GAP43 (11754022_s_at) / RFU A4GNT (11735810_at) / Fold change /veh A4GNT (11735810_at) / RFU PRB3 (11715151_x_at) / Fold change /veh PRB3 (11715151_x_at) / RFU TUBB4B (11761932_at) / Fold change /veh TUBB4B (11761932_at) / RFU CAPN14 (11732068_a_at) / Fold change /veh CAPN14 (11732068_a_at) / RFU TMCC2 (11721928_a_at) / Fold change /veh TMCC2 (11721928_a_at) / RFU IRGQ (11745062_a_at) / Fold change /veh IRGQ (11745062_a_at) / RFU FAM174B (11720279_a_at) / Fold change /veh FAM174B (11720279_a_at) / RFU TMPRSS4 (11748680_a_at) / Fold change /veh TMPRSS4 (11748680_a_at) / RFU FAM212B (11763350_a_at) / Fold change /veh FAM212B (11763350_a_at) / RFU PLEKHG5 (11743358_a_at) / Fold change /veh PLEKHG5 (11743358_a_at) / RFU ZSCAN30 (11745921_a_at) / Fold change /veh ZSCAN30 (11745921_a_at) / RFU CMKLR1 (11741424_a_at) / Fold change /veh CMKLR1 (11741424_a_at) / RFU LOC101060620 /// MAPK8IP1 (11723275_at) / Fold change /veh LOC101060620 /// MAPK8IP1 (11723275_at) / RFU SPTSSB (11747773_x_at) / Fold change /veh SPTSSB (11747773_x_at) / RFU PRSS12 (11739890_at) / Fold change /veh PRSS12 (11739890_at) / RFU BIN1 (11741810_x_at) / Fold change /veh BIN1 (11741810_x_at) / RFU WNT11 (11732464_a_at) / Fold change /veh WNT11 (11732464_a_at) / RFU C10orf10 (11716521_a_at) / Fold change /veh C10orf10 (11716521_a_at) / RFU C5orf56 (11738089_at) / Fold change /veh C5orf56 (11738089_at) / RFU CYB561 (11721691_x_at) / Fold change /veh CYB561 (11721691_x_at) / RFU ANKRD19P (11752326_a_at) / Fold change /veh ANKRD19P (11752326_a_at) / RFU OR2T12 /// OR2T33 /// OR2T8 (11738714_s_at) / Fold change /veh OR2T12 /// OR2T33 /// OR2T8 (11738714_s_at) / RFU VCAN (11748164_a_at) / Fold change /veh VCAN (11748164_a_at) / RFU JSRP1 (11732532_at) / Fold change /veh JSRP1 (11732532_at) / RFU KRTAP10-11 (11738290_x_at) / Fold change /veh KRTAP10-11 (11738290_x_at) / RFU MYO3A (11730013_a_at) / Fold change /veh MYO3A (11730013_a_at) / RFU EBF3 (11725865_a_at) / Fold change /veh EBF3 (11725865_a_at) / RFU CAMK2N1 (11719241_x_at) / Fold change /veh CAMK2N1 (11719241_x_at) / RFU C5orf56 (11738088_a_at) / Fold change /veh C5orf56 (11738088_a_at) / RFU OLFML3 (11715873_a_at) / Fold change /veh OLFML3 (11715873_a_at) / RFU LOC100653217 /// NTM (11731650_a_at) / Fold change /veh LOC100653217 /// NTM (11731650_a_at) / RFU MAPK11 (11762145_a_at) / Fold change /veh MAPK11 (11762145_a_at) / RFU FIZ1 (11724087_x_at) / Fold change /veh FIZ1 (11724087_x_at) / RFU OASL (11726364_x_at) / Fold change /veh OASL (11726364_x_at) / RFU SOX15 (11748057_x_at) / Fold change /veh SOX15 (11748057_x_at) / RFU CD79A (11719716_a_at) / Fold change /veh CD79A (11719716_a_at) / RFU HIST1H1D (11736915_at) / Fold change /veh HIST1H1D (11736915_at) / RFU CASKIN2 (11723855_a_at) / Fold change /veh CASKIN2 (11723855_a_at) / RFU LOC730098 (11760151_x_at) / Fold change /veh LOC730098 (11760151_x_at) / RFU OR4N2 (11742367_at) / Fold change /veh OR4N2 (11742367_at) / RFU PRRT2 (11749266_a_at) / Fold change /veh PRRT2 (11749266_a_at) / RFU SNX32 (11753110_a_at) / Fold change /veh SNX32 (11753110_a_at) / RFU CDHR5 (11726645_a_at) / Fold change /veh CDHR5 (11726645_a_at) / RFU RCAN1 (11760418_a_at) / Fold change /veh RCAN1 (11760418_a_at) / RFU FAM167A (11723789_a_at) / Fold change /veh FAM167A (11723789_a_at) / RFU FAM26E (11764081_at) / Fold change /veh FAM26E (11764081_at) / RFU ISYNA1 (11749810_s_at) / Fold change /veh ISYNA1 (11749810_s_at) / RFU ACY1 (11761880_at) / Fold change /veh ACY1 (11761880_at) / RFU 11764098_at / Fold change /veh 11764098_at / RFU SAMD14 (11745864_x_at) / Fold change /veh SAMD14 (11745864_x_at) / RFU NPB (11741838_a_at) / Fold change /veh NPB (11741838_a_at) / RFU TMPRSS6 (11731388_a_at) / Fold change /veh TMPRSS6 (11731388_a_at) / RFU KRTAP10-2 (11738614_at) / Fold change /veh KRTAP10-2 (11738614_at) / RFU ARHGAP8 /// PRR5-ARHGAP8 (11727945_x_at) / Fold change /veh ARHGAP8 /// PRR5-ARHGAP8 (11727945_x_at) / RFU KRTAP5-7 /// NADSYN1 (11734609_at) / Fold change /veh KRTAP5-7 /// NADSYN1 (11734609_at) / RFU RASL12 (11751679_a_at) / Fold change /veh RASL12 (11751679_a_at) / RFU CDKN2B (11736163_a_at) / Fold change /veh CDKN2B (11736163_a_at) / RFU PRF1 (11729649_at) / Fold change /veh PRF1 (11729649_at) / RFU, ZNF638 /// ZNF638-IT1 / Fold change vs veh, ZNF638 /// ZNF638-IT1 / RFU, PANK3 / Fold change vs veh, PANK3 / RFU, SH3YL1 / Fold change vs veh, SH3YL1 / RFU, ZEB2 / Fold change vs veh, ZEB2 / RFU, NRIP1 / Fold change vs veh, NRIP1 / RFU, PTTG1IP / Fold change vs veh, PTTG1IP / RFU, CAPN2 / Fold change vs veh, CAPN2 / RFU, MED14 / Fold change vs veh, MED14 / RFU, SNORA58 / Fold change vs veh, SNORA58 / RFU, C1orf63 / Fold change vs veh, C1orf63 / RFU, LRRFIP1 / Fold change vs veh, LRRFIP1 / RFU, NDUFAF7 / Fold change vs veh, NDUFAF7 / RFU, SLC12A2 / Fold change vs veh, SLC12A2 / RFU, IBTK / Fold change vs veh, IBTK / RFU, ESF1 / Fold change vs veh, ESF1 / Fold change vs veh, TMEM50B / RFU, TAOK1 / Fold change vs veh, TAOK1 / RFU, ACBD3 / Fold change vs veh, ACBD3 / RFU, TMA16 / Fold change vs veh, TMA16 / RFU, RWDD3 / Fold change vs veh, RWDD3 / RFU, BCAT1 / Fold change vs veh, BCAT1 / RFU, EDEM3 / Fold change vs veh, EDEM3 / RFU, TMEM33 / Fold change vs veh, TMEM33 / RFU, WDR75 / Fold change vs veh, WDR75 / RFU, AHCTF1 / Fold change vs veh, AHCTF1 / RFU, TFRC / Fold change vs veh, TFRC / RFU, ZDHHC17 / Fold change vs veh, ZDHHC17 / RFU, NOM1 / Fold change vs veh, NOM1 / RFU, ARL8B / Fold change vs veh, ARL8B / RFU, ZBTB11 / Fold change vs veh, ZBTB11 / RFU, TAMM41 / Fold change vs veh, TAMM41 / RFU, KIAA1704 /// LOC100996395 / Fold change vs veh, KIAA1704 /// LOC100996395 / RFU, ING1 / Fold change vs veh, ING1 / RFU, TRMT61B / Fold change vs veh, TRMT61B / RFU, FUBP3 / Fold change vs veh, FUBP3 / RFU, TP53 / Fold change vs veh, TP53 / RFU, TNKS2 / Fold change vs veh, TNKS2 / RFU, ZFP14 / Fold change vs veh, ZFP14 / RFU, ACTR2 / Fold change vs veh, ACTR2 / RFU, PPP3R1 / Fold change vs veh, PPP3R1 / RFU, PIK3R1 / Fold change vs veh, PIK3R1 / RFU, HNRNPA1 / Fold change vs veh, HNRNPA1 / RFU, RNF170 / Fold change vs veh, RNF170 / RFU, ZNF28 / Fold change vs veh, ZNF28 / RFU, RNGTT / Fold change vs veh, RNGTT / RFU, OGT / Fold change vs veh, OGT / RFU, BRD1 / Fold change vs veh, BRD1 / RFU, MARS / Fold change vs veh, MARS / RFU, ZNF655 / Fold change vs veh, ZNF655 / RFU, FAHD1 / Fold change vs veh, FAHD1 / RFU, BDP1 / Fold change vs veh, BDP1 / RFU, LRRCC1 / Fold change vs veh, LRRCC1 / RFU, ARID1A / Fold change vs veh, ARID1A / RFU, ZNF146 / Fold change vs veh, ZNF146 / RFU, ZNF330 / Fold change vs veh, ZNF330 / RFU, GPN3 / Fold change vs veh, GPN3 / RFU, C9orf123 / Fold change vs veh, C9orf123 / RFU, N4BP2L2 / Fold change vs veh, N4BP2L2 / RFU, ARFIP1 / Fold change vs veh, ARFIP1 / RFU, FAM179B / Fold change vs veh, FAM179B / RFU, BCL10 / Fold change vs veh, BCL10 / RFU, UHRF1BP1L / Fold change vs veh, UHRF1BP1L / RFU, BET1 / Fold change vs veh, BET1 / RFU, CNOT2 / Fold change vs veh, CNOT2 / RFU, ZNF268 / Fold change vs veh, ZNF268 / Fold change vs veh, ZNF507 / RFU, DGCR2 / Fold change vs veh, DGCR2 / RFU, WDSUB1 / Fold change vs veh, WDSUB1 / Fold change vs veh, HSP90B1 /// MIR3652 / RFU, ADSS / Fold change vs veh, ADSS / RFU, GK / Fold change vs veh, GK / RFU, ZNF148 / Fold change vs veh, ZNF148 / RFU, TAF9 / Fold change vs veh, TAF9 / RFU, SLC1A5 / Fold change vs veh, SLC1A5 / RFU, SLMO2 / Fold change vs veh, SLMO2 / RFU, ABCC4 / Fold change vs veh, ABCC4 / RFU, LOC101060439 /// RAP1B / Fold change vs veh, LOC101060439 /// RAP1B / RFU, RFX7 / Fold change vs veh, RFX7 / RFU, GTPBP10 / Fold change vs veh, GTPBP10 / RFU, CNEP1R1 / Fold change vs veh, CNEP1R1 / RFU, BIVM-ERCC5 /// ERCC5 / Fold change vs veh, BIVM-ERCC5 /// ERCC5 / RFU, ILF3 / Fold change vs veh, ILF3 / RFU 11762660_at / Fold change /veh 11762660_at / RFU VCAN (11757783_s_at) / Fold change /veh VCAN (11757783_s_at) / RFU DDX43 (11728927_at) / Fold change /veh DDX43 (11728927_at) / RFU KRT8 (11758188_x_at) / Fold change /veh KRT8 (11758188_x_at) / RFU NKD1 (11759106_at) / Fold change /veh NKD1 (11759106_at) / RFU SRD5A1 (11742802_a_at) / Fold change /veh SRD5A1 (11742802_a_at) / RFU TPSAB1 /// TPSB2 (11721975_s_at) / Fold change /veh TPSAB1 /// TPSB2 (11721975_s_at) / RFU GSTM3 (11746129_a_at) / Fold change /veh GSTM3 (11746129_a_at) / RFU IL23R (11737362_x_at) / Fold change /veh IL23R (11737362_x_at) / RFU TMEM51 (11727254_a_at) / Fold change /veh TMEM51 (11727254_a_at) / RFU PIWIL2 (11732686_x_at) / Fold change /veh PIWIL2 (11732686_x_at) / RFU ORM1 (11744905_x_at) / Fold change /veh ORM1 (11744905_x_at) / RFU CCDC152 (11743942_at) / Fold change /veh CCDC152 (11743942_at) / RFU ECM1 (11717891_a_at) / Fold change /veh ECM1 (11717891_a_at) / RFU IL23R (11748794_a_at) / Fold change /veh IL23R (11748794_a_at) / RFU TNFAIP8L3 (11732012_x_at) / Fold change /veh TNFAIP8L3 (11732012_x_at) / RFU MBOAT4 (11741988_at) / Fold change /veh MBOAT4 (11741988_at) / RFU 11764193_at / Fold change /veh 11764193_at / RFU TMEM53 (11763286_at) / Fold change /veh TMEM53 (11763286_at) / RFU MAGEB2 (11727129_at) / Fold change /veh MAGEB2 (11727129_at) / RFU TMEM200A (11744735_a_at) / Fold change /veh TMEM200A (11744735_a_at) / RFU CCDC152 (11751479_a_at) / Fold change /veh CCDC152 (11751479_a_at) / RFU FAM211A (11726209_a_at) / Fold change /veh FAM211A (11726209_a_at) / RFU RGS16 (11746705_a_at) / Fold change /veh RGS16 (11746705_a_at) / RFU VCAN (11755009_s_at) / Fold change /veh VCAN (11755009_s_at) / RFU RHOB (11743442_s_at) / Fold change /veh RHOB (11743442_s_at) / RFU RGS16 (11720943_a_at) / Fold change /veh RGS16 (11720943_a_at) / RFU RGS16 (11720944_at) / Fold change /veh RGS16 (11720944_at) / RFU, VPS4B / Fold change vs veh, VPS4B / RFU, CREB1 / Fold change vs veh, CREB1 / RFU, DNAJC13 / Fold change vs veh, DNAJC13 / RFU, GNAQ / Fold change vs veh, GNAQ / RFU, CDK5R1 / Fold change vs veh, CDK5R1 / RFU, ZRANB3 / Fold change vs veh, ZRANB3 / RFU, CUL4A / Fold change vs veh, CUL4A / RFU, CCNY / Fold change vs veh, CCNY / RFU, UFL1 / Fold change vs veh, UFL1 / RFU, COG3 / Fold change vs veh, COG3 / RFU, DIAPH2 / Fold change vs veh, DIAPH2 / RFU, SKA2 / Fold change vs veh, SKA2 / RFU, AFF3 / Fold change vs veh, AFF3 / RFU, LMF1 / Fold change vs veh, LMF1 / RFU, IPO11 / Fold change vs veh, IPO11 / RFU, DFFB / Fold change vs veh, DFFB / RFU, FOXP1 / Fold change vs veh, FOXP1 / RFU, CARD8 / Fold change vs veh, CARD8 / RFU, STRN3 / Fold change vs veh, STRN3 / RFU, ADK / Fold change vs veh, ADK / RFU, RASSF2 / Fold change vs veh, RASSF2 / RFU, WIPF1 / Fold change vs veh, WIPF1 / RFU, LARP1B / Fold change vs veh, LARP1B / RFU, RASA1 / Fold change vs veh, RASA1 / RFU, RB1 / Fold change vs veh, RB1 / RFU, PPFIA1 / Fold change vs veh, PPFIA1 / RFU, MAT2A / Fold change vs veh, MAT2A / RFU, CCT5 / Fold change vs veh, CCT5 / RFU, WDR92 / Fold change vs veh, WDR92 / RFU, CUX1 / Fold change vs veh, CUX1 / RFU, TTC7A / Fold change vs veh, TTC7A / RFU, TMEM135 / Fold change vs veh, TMEM135 / RFU, DEPTOR / Fold change vs veh, DEPTOR / RFU, CPM / Fold change vs veh, CPM / RFU, DNAJB6 / Fold change vs veh, DNAJB6 / RFU, CACNA2D3 / Fold change vs veh, CACNA2D3 / RFU, DTX4 / Fold change vs veh, DTX4 / RFU, TFCP2 / Fold change vs veh, TFCP2 / RFU, GMCL1 /// GMCL1P1 / Fold change vs veh, GMCL1 /// GMCL1P1 / RFU, AEBP2 / Fold change vs veh, AEBP2 / RFU, SNHG1 /// SNORD22 /// SNORD25 /// SNORD26 /// SNORD27 /// SNORD28 /// SNORD29 /// SNORD31 / Fold change vs veh, SNHG1 /// SNORD22 /// SNORD25 /// SNORD26 /// SNORD27 /// SNORD28 /// SNORD29 /// SNORD31 / Fold change (Aza/veh), C12orf56 (ProbeSet 11735607_a_at) / Fold change (ACY-1035/veh), C12orf56 (ProbeSet 11735607_a_at) / Fold change (Aza/veh), FGFR1OP (ProbeSet 11751329_s_at) / Fold change (ACY-1035/veh), FGFR1OP (ProbeSet 11751329_s_at) / Fold change (Aza/veh), VPS36 (ProbeSet 11739960_a_at) / Fold change (ACY-1035/veh), VPS36 (ProbeSet 11739960_a_at) / RFU SYPL1 (11715823_x_at) / Fold change /veh SYPL1 (11715823_x_at) / RFU IGFBP7 (11715501_s_at) / Fold change /veh IGFBP7 (11715501_s_at) / RFU REEP3 (11722064_at) / Fold change /veh REEP3 (11722064_at) / RFU IGLL1 (11728026_x_at) / Fold change /veh IGLL1 (11728026_x_at): dose or concentration left out as unconfirmed
Conditions: ProbeSet 11716999_a_at; LIST D

Nc1ccc(-c2cccs2)cc1NC(=O)c1ccc2c(c1)cc(C1CC1)n2CCN1CCOCC1 [ACY-1035]
Fold change vs veh, RASA1: 0.84
